Measurements as given in ChEMBL document CHEMBL5233258, “Recent developments of gallic acid derivatives and their hybrids in medicinal chemistry: A review” (Eur J Med Chem, 2020).
pIC50: −log10 of the molar value.

Legend:
[1] = Antioxidant activity in ethanol; format: functional
Bacillus subtilis [2] = test: Antibacterial activity against Bacillus subtilis ATCC 9372 assessed as inhibition of bacterial growth incubated for 48 hrs by broth macrodilution method; format: functional
Staphylococcus aureus [3] = test: Antibacterial activity against Staphylococcus aureus ATCC 12598 assessed as inhibition of bacterial growth incubated for 48 hrs by broth macrodilution method; format: functional
Micrococcus luteus [4] = test: Antibacterial activity against Micrococcus luteus ATCC 4698 assessed as inhibition of bacterial growth incubated for 48 hrs by broth macrodilution method; format: functional
[5] = test system: Corynebacterium ammoniagenes; test: Antibacterial activity against Brevibacterium ammoniagenes ATCC 6872 assessed as inhibition of bacterial growth incubated for 48 hrs by broth macrodilution method; format: functional
Bacillus subtilis [6] = test: Bactericidal activity against Bacillus subtilis ATCC 9372 assessed as inhibition of bacterial growth incubated for 48 hrs by broth macrodilution method; format: functional
Staphylococcus aureus [7] = test: Bactericidal activity against Staphylococcus aureus ATCC 12598 assessed as inhibition of bacterial growth incubated for 48 hrs by broth macrodilution method; format: functional
Micrococcus luteus [8] = test: Bactericidal activity against Micrococcus luteus ATCC 4698 assessed as inhibition of bacterial growth incubated for 48 hrs by broth macrodilution method; format: functional
[9] = test system: Corynebacterium ammoniagenes; test: Bactericidal activity against Brevibacterium ammoniagenes ATCC 6872 assessed as inhibition of bacterial growth incubated for 48 hrs by broth macrodilution method; format: functional
[10] = target: T1, Seed linoleate 13S-lipoxygenase-1 (Glycine max, UniProt P08170); test: Inhibition of soybean LOX-1
T1 sequence (P08170 whole entry): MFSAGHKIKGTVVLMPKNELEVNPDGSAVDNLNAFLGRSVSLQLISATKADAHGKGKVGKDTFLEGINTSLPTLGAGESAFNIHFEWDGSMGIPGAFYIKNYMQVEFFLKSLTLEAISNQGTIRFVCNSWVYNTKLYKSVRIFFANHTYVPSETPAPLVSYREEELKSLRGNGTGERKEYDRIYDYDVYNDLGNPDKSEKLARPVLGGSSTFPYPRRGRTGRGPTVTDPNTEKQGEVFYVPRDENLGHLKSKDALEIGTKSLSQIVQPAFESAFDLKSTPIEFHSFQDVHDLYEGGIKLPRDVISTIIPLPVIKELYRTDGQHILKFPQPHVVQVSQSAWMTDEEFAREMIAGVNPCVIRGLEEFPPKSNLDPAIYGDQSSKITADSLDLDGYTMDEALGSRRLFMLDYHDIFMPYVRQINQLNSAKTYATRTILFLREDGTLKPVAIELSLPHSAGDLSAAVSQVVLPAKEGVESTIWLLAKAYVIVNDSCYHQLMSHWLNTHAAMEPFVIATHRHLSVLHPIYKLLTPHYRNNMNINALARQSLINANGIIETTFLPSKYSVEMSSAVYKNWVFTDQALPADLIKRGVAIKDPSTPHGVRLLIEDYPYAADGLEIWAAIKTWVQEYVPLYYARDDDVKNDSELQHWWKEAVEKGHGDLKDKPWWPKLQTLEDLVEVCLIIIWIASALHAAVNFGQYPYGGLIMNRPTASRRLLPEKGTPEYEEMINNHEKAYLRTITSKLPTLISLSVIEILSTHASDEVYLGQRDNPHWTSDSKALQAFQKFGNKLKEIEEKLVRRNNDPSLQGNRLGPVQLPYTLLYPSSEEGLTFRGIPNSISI

Row | MIC (Bacillus subtilis [2]) | MIC (Staphylococcus aureus [3]) | MIC (Micrococcus luteus [4]) | MIC [5] | pIC50 [10] | Compound | IC50 [1] | MBC (Bacillus subtilis [6]) | MBC (Staphylococcus aureus [7]) | MBC (Micrococcus luteus [8]) | MBC [9]
1 |  |  |  |  |  | CCCCCCCCOC(=O)c1cc(O)c(O)c(O)c1 [OCTYL_GALLATE] | 19 ppm |  |  |  | 
2 | > 200 µg/mL | > 200 µg/mL | > 200 µg/mL | > 200 µg/mL | 5.96 | CCCCCCCCCCCCOC(=O)c1cc(O)c(O)c(O)c1 [DODECYL GALLATE] |  | > 200 µg/mL | > 200 µg/mL | > 200 µg/mL | > 200 µg/mL
